Drawing on ChEMBL document CHEMBL2331373, “Synthesis and antitubercular activity of amino alcohol fused spirochromone conjugates” (2013), this text covers MIC for 23 molecules.

Values after ≈ are worked out from the molar mass of the structure shown.

For the assay, the system named is Mycobacterium tuberculosis. The experiment in a line: Antimycobacterial activity against Mycobacterium tuberculosis H37Rv ATCC 27294 by agar dilution method. The class given is functional.

In the case of `O=C1CC2(CCCC2)Oc2cc(OCC(O)CNc3cccc(F)c3)ccc21` (stereo not drawn), 3.13 µg/mL (≈ 8.12 µM) was the least that counted as inhibitory (MIC).

Take `COc1ccc(NCC(O)COc2ccc3c(c2)OC2(CCN(C(=O)OC(C)(C)C)CC2)CC3=O)cc1` (stereo not drawn): the MIC was > 25 µg/mL.

As to `COc1ccc(CNCC(O)COc2ccc3c(c2)OC2(CCCC2)CC3=O)cc1` (stereo not drawn), it took 12.5 µg/mL (≈ 30.4 µM) to inhibit growth (MIC).

On to `CC(C)c1ccccc1NCC(O)COc1ccc2c(c1)OC1(CCCC1)CC2=O` (stereo not drawn), for which it took 6.25 µg/mL (≈ 15.3 µM) to inhibit growth (MIC).

Take `O=C1CC2(CCCC2)Oc2cc(OCC(O)CN3CCOCC3)ccc21` (stereo not drawn): the MIC is > 25 µg/mL.

In turn, `COc1ccc(NCC(O)COc2ccc3c(c2)OC2(CCCC2)CC3=O)cc1` (stereo not drawn) came in with an MIC of 25 µg/mL (≈ 62.9 µM).

On to `O=C1CC2(CCCC2)Oc2cc(OCC(O)CNc3ccc([N+](=O)[O-])cc3O)ccc21` (stereo not drawn), for which the lowest concentration to inhibit growth (MIC) was 6.25 µg/mL (≈ 14.6 µM).

In the case of `COc1ccccc1NCC(O)COc1ccc2c(c1)OC1(CCCCC1)CC2=O` (stereo not drawn), the MIC worked out at 12.5 µg/mL (≈ 30.4 µM).

`O=C1CC2(CCCC2)Oc2cc(OCC(O)CNc3ccccc3Cl)ccc21` (stereo not drawn) showed an MIC of 6.25 µg/mL (≈ 15.6 µM).

Take `CC(C)(C)OC(=O)N1CCC2(CC1)CC(=O)c1ccc(OCC(O)CNc3ccccc3)cc1O2` (stereo not drawn): the MIC is > 25 µg/mL.

In turn, `COc1ccccc1NCC(O)COc1ccc2c(c1)OC1(CCN(C(=O)OC(C)(C)C)CC1)CC2=O` (stereo not drawn) registered an MIC of 25 µg/mL (≈ 48.8 µM).

The molecule `O=C1CC2(CCCCC2)Oc2cc(OCC(O)CNc3ccccc3)ccc21` (stereo not drawn) came in with a minimal inhibitory concentration (MIC) of 12.5 µg/mL (≈ 32.8 µM).

On to `O=C1CC2(CCCC2)Oc2cc(OCC(O)CNc3ccccc3)ccc21` (stereo not drawn), for which the lowest concentration to inhibit growth (MIC) was 25 µg/mL (≈ 68 µM).

On to `CC(C)c1ccc(NCC(O)COc2ccc3c(c2)OC2(CCN(C(=O)OC(C)(C)C)CC2)CC3=O)cc1` (stereo not drawn), for which the MIC was determined as 12.5 µg/mL (≈ 23.8 µM).

As for `Cc1ccccc1NCC(O)COc1ccc2c(c1)OC1(CCCC1)CC2=O` (stereo not drawn), inhibition of growth (MIC) required 12.5 µg/mL (≈ 32.8 µM).

`CO[C@H]1/C=C/O[C@@]2(C)Oc3c(C)c(O)c4c(O)c(c(/C=N/N5CCN(C)CC5)c(O)c4c3C2=O)NC(=O)/C(C)=C\C=C\[C@H](C)[C@H](O)[C@@H](C)[C@@H](O)[C@@H](C)[C@H](OC(C)=O)[C@@H]1C` [RIFAMPIN] registered an MIC of 0.2 µg/mL (≈ 0.243 µM).

Take `CC(C)c1ccc(NCC(O)COc2ccc3c(c2)OC2(CCCCC2)CC3=O)cc1` (stereo not drawn): inhibition of growth (MIC) required 6.25 µg/mL (≈ 14.8 µM).

On to `CC[C@@H](CO)NCCN[C@@H](CC)CO` [ETHAMBUTOL], for which the MIC worked out at 1.56 µg/mL (≈ 7.64 µM).

Take `COc1ccc(NCC(O)COc2ccc3c(c2)OC2(CCCCC2)CC3=O)cc1` (stereo not drawn): the MIC came to 12.5 µg/mL (≈ 30.4 µM).

On to `CC(C)c1ccc(NCC(O)COc2ccc3c(c2)OC2(CCCC2)CC3=O)cc1` (stereo not drawn), for which the lowest concentration to inhibit growth (MIC) was 6.25 µg/mL (≈ 15.3 µM).

In turn, `Cc1ccccc1NCC(O)COc1ccc2c(c1)OC1(CCCCC1)CC2=O` (stereo not drawn) displayed an MIC of 6.25 µg/mL (≈ 15.8 µM).

`Cc1ccccc1NCC(O)COc1ccc2c(c1)OC1(CCN(C(=O)OC(C)(C)C)CC1)CC2=O` (stereo not drawn) returned an MIC of 25 µg/mL (≈ 50.3 µM).

`COc1ccccc1NCC(O)COc1ccc2c(c1)OC1(CCCC1)CC2=O` (stereo not drawn) showed an MIC of 12.5 µg/mL (≈ 31.4 µM).

For orientation: MIC means the least concentration at which growth counts as inhibited.
